The values that follow come from US12473304B2, “Heterocyclic PAD4 inhibitors” (BRISTOL-MYERS SQUIBB COMPANY, priority 2020, dated 2025).

human PAD4 (hPAD4), sequence (Q9UM07 whole entry): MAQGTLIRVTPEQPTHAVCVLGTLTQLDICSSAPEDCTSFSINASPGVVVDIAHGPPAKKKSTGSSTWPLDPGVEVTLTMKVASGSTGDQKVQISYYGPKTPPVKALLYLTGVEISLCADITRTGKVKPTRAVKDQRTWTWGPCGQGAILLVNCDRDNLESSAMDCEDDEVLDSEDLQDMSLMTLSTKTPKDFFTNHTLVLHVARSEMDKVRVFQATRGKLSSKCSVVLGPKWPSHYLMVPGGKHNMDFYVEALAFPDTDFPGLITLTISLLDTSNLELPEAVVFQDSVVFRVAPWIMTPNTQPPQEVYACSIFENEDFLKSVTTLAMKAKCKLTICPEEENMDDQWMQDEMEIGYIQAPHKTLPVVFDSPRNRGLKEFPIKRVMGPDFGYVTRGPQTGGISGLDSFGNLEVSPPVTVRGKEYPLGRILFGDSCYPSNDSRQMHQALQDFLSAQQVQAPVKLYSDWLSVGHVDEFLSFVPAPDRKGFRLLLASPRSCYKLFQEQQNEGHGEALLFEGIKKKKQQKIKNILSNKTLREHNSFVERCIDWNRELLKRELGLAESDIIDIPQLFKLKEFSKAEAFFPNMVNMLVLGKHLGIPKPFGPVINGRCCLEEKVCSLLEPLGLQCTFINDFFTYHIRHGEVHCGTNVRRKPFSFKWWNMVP

The assay concerns the target human PAD4 (hPAD4) (Homo sapiens (Human), UniProt Q9UM07). The experiment in a line: RFMS Human PAD4 Functional Assay 1. Conditions: RFMS assay 1; 5 nM hPAD4, 250 μM BAEE substrate, 50 μM calcium, 37° C. The class given is biochemical. The gist of the method:
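Citrullination product read by RapidFire triple-quad MRM against a modified-citrulline internal standard, after TCA stop and 30 min phenyl glyoxal step at 37 °C. Reaction: 250 μM BAEE, 5 nM human PAD4, 90 min at 37 °C, pH 7.5 HEPES buffer with 50 μM calcium and 5 μM TPEN, following 30 min compound–enzyme preincubation (max 50 μM).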
The term IC50 denotes the concentration at which inhibition is half-maximal. As to `Cc1c(-c2cc3cccnc3n2CC2CC2)nn2cc(C(=O)N3CC4CCC3[C@@H]4N)ccc12` (stereo partly drawn) [Example 63, ((7R)-7-Amino-2-azabicyclo[2.2.1]heptan-2-yl)(2-(1-(cyclopropylmethyl)-1H-pyrrolo[2,3-b]pyridin-2-yl)-3-methylpyrazolo[1,5-a]pyridin-6-yl)methanone], the IC50 amounted to 227 nM. As for `COC(C)(C)C(=O)N1CCC(c2cccc3cc(-c4nn5cc(C(=O)N6C[C@H](N)C[C@@H](F)C6)cc(F)c5c4C)n(CC4CC4)c23)CC1` [Example 417, 1-(4-(2-(6-((3R,5R)-3-Amino-5-fluoropiperidin-1-carbonyl)-4-fluoro-3-methylpyrazolo[1,5-a]pyridin-2-yl)-1-(cyclopropylmethyl)-1H-indol-7-yl)piperidin-1-yl)-2-methoxy-2-methylpropan-1-one], the figure is 5060 nM; as for `CO[C@@H](C)C(=O)N1CCC(c2cccc3cc(-c4nn5cc(C(=O)N6CCC[C@@H](N)C6)ccc5c4C)n(CC4CC4)c23)CC1` [Example 454, (S)-1-(4-(2-(6-((R)-3-aminopiperidine-1-carbonyl)-3-methylpyrazolo[1,5-a]pyridin-2-yl)-1-(cyclopropylmethyl)-1H-indol-7-yl)piperidin-1-yl)-2-methoxypropan-1-one], 550 nM; as for `Cc1c(-c2cc3cccc(OCC4CNC(=O)C4)c3n2CC2CC2)nn2cc(C(=O)N3CCC[C@@H](N)C3)ccc12` (single isomer, unassigned) [Example 588], 230 nM.

On to `Cc1c(-c2cc3cccc(C4CN(C(=O)[C@H]5CCC[C@@H](O)C5)C4)c3n2CC2CC2)nn2cc(C(=O)N3C[C@H](N)C[C@@H](F)C3)ccc12` [Example 533, ((3R,5R)-3-Amino-5-fluoropiperidin-1-yl)(2-(1-(cyclopropylmethyl)-7-(1-((1S,3R)-3-hydroxycyclohexane-1-carbonyl)azetidin-3-yl)-1H-indol-2-yl)-3-methylpyrazolo[1,5-a]pyridin-6-yl)methanone], for which the IC50 came out at 520 nM.

For `Cc1c(-c2cc3ccc(C(C)O)nc3n2CC2CC2)nn2cc(C(=O)N3CC4CCC3[C@@H]4N)ccc12` (stereo partly drawn) [Example 104, ((7R)-7-Amino-2-azabicyclo[2.2.1]heptan-2-yl)(2-(1-(cyclopropylmethyl)-6-(1-hydroxyethyl)-1H-pyrrolo[2,3-b]pyridin-2-yl)-3-methylpyrazolo[1,5-a]pyridin-6-yl)methanone], the IC50 stood at 25 nM.

`Cc1c(-c2cc3ccc(-c4ccc5[nH]ncc5c4)nc3n2CC2CC2)nn2cc(C(=O)N3CCC[C@@H](N)C3)cc(Cl)c12` [Example 292, (3R)-1-{4-chloro-2-[1-(Cyclopropylmethyl)-6-(1H-indazol-5-yl)-1H-pyrrolo[2,3-b]pyridin-2-yl]-3-methylpyrazolo[1,5-a]pyridine-6-carbonyl}piperidin-3-amine]: the IC50 stood at 2350 nM. The same measure for `COC1CN(c2ccc3cc(-c4nn5cc(C(=O)N6CC7CCC6[C@@H]7N)cc(F)c5c4C)n(CC4CC4)c3c2)C1` (stereo partly drawn) [Example 296, (7R)-2-{2-[1-(Cyclopropylmethyl)-6-(3-methoxyazetidin-1-yl)-1H-indol-2-yl]-4-fluoro-3-methylpyrazolo[1,5-a]pyridine-6-carbonyl}-2-azabicyclo[2.2.1]heptan-7-amine]: 850 nM; for `Cc1c(-c2cc3ccc(N4CCNCC4=O)cc3n2CC2CC2)oc2cc(C(=O)N3CC4CCC3[C@@H]4N)ccc12` (stereo partly drawn) [Example 193, 1-(2-(6-((7R)-7-Amino-2-azabicyclo[2.2.1]heptane-2-carbonyl)-3-methylbenzofuran-2-yl)-1-(cyclopropylmethyl)-1H-indol-6-yl)piperazin-2-one]: 334 nM. The same measure for `COCC(=O)N1CCC(c2nccc3cc(-c4nn5cc(C(=O)N6C[C@H](N)C[C@@H](F)C6)cc(OC)c5c4C)n(CC4CC4)c23)CC1` [Example 511, 1-(4-(2-(6-((3R,5R)-3-Amino-5-fluoropiperidine-1-carbonyl)-4-methoxy-3-methylpyrazolo[1,5-a]pyridin-2-yl)-1-(cyclopropylmethyl)-1H-pyrrolo[2,3-c]pyridin-7-yl)piperidin-1-yl)-2-methoxyethan-1-one]: 10 nM. Consider `Cc1c(-c2cc3ccc(-c4ccc(NS(C)(=O)=O)cc4)cc3n2CC2CC2)nn2cc(C(=O)N3C[C@H](N)C[C@@H](F)C3)ccc12` [Example 369, N-[4-(2-{6-[(3R,5R)-3-Amino-5-fluoropiperidine-1-carbonyl]-3-methylpyrazolo[1,5-a]pyridin-2-yl}-1-(cyclopropylmethyl)-1H-indol-6-yl)phenyl]methanesulfonamide], for which the half-maximal inhibitory concentration (IC50) stood at 20 nM.

`Cc1c(-c2cc3ccc(C(C)(C)O)cc3n2CC2CC2)oc2cc(C(=O)N3CC4CCC3[C@@H]4N)ccc12` (stereo partly drawn) [Example 204, ((7R)-7-Amino-2-azabicyclo[2.2.1]heptan-2-yl)(2-(1-(cyclopropylmethyl)-6-(2-hydroxypropan-2-yl)-1H-indol-2-yl)-3-methylbenzofuran-6-yl)methanone]: the IC50 is 39 nM. As for `Cc1c(-c2cc3ccc(-c4cccc(O)c4F)nc3n2CC2CC2)nn2cc(C(=O)N3C[C@H](N)C[C@@H](F)C3)ccc12` [Example 86, ((3R,5R)-3-Amino-5-fluoropiperidin-1-yl)(2-(1-(cyclopropylmethyl)-6-(2-fluoro-3-hydroxyphenyl)-1H-pyrrolo[2,3-b]pyridin-2-yl)-3-methylpyrazolo[1,5-a]pyridin-6-yl)methanone], the IC50 came to 219 nM. As for `COc1cc(-c2ccc3cc(-c4nn5cc(C(=O)N6CC7CCC6[C@@H]7N)cc(F)c5c4C)n(CC4CC4)c3n2)c(F)cn1` (stereo partly drawn) [Example 45, ((7R)-7-Amino-2-azabicyclo[2.2.1]heptan-2-yl)(2-(1-(cyclopropylmethyl)-6-(5-fluoro-2-methoxypyridin-4-yl)-1H-pyrrolo[2,3-b]pyridin-2-yl)-4-fluoro-3-methylpyrazolo[1,5-a]pyridin-6-yl)methanone], the figure is 101 nM.

Consider `Cc1c(-c2cc3ccc(-c4ccc5c(c4)CNC5=O)nc3n2CC2CC2)nn2cc(C(=O)N3CC4CCC3[C@@H]4N)cc(F)c12` (stereo partly drawn) [Example 42, 5-(2-(6-((7R)-7-Amino-2-azabicyclo[2.2.1]heptane-2-carbonyl)-4-fluoro-3-methylpyrazolo[1,5-a]pyridin-2-yl)-1-(cyclopropylmethyl)-1H-pyrrolo[2,3-b]pyridin-6-yl)isoindolin-1-one], for which the IC50 amounted to 9 nM. Regarding `COCC(=O)N1CCC(c2cccc3cc(-c4nn5cc(C(=O)N6C[C@H](N)C[C@@H](F)C6)ccc5c4C)n(CC4CC4)c23)CC1` [Example 478, 1-(4-(2-(6-((3R,5R)-3-Amino-5-fluoropiperidine-1-carbonyl)-3-methylpyrazolo[1,5-a]pyridin-2-yl)-1-(cyclopropylmethyl)-1H-indol-7-yl)piperidin-1-yl)-2-methoxyethan-1-one], the IC50 was determined as 130 nM.

Consider `COc1cc(C(=O)N2CCC[C@@H](N)C2)cn2nc(-c3cc4ccnc(OCCn5ccnc5)c4n3CC3CC3)c(C)c12` [Example 598, (R)-(2-(7-(2-(1H-Imidazol-1-yl)ethoxy)-1-(cyclopropylmethyl)-1H-pyrrolo[2,3-c]pyridin-2-yl)-4-methoxy-3-methylpyrazolo[1,5-a]pyridin-6-yl)(3-aminopiperidin-1-yl)methanone], for which the IC50 amounted to 20 nM. As for `Cc1c(-c2cc3cccc(OCCn4ccnc4)c3n2CC2CC2)nn2cc(C(=O)N3CCC[C@@H](N)C3)ccc12` [Example 575, (R)-(2-(7-(2-(1H-lmidazol-1-yl)ethoxy)-1-(cyclopropylmethyl)-1H-indol-2-yl)-3-methylpyrazolo[1,5-a]pyridin-6-yl)(3-aminopiperidin-1-yl)methanone], the figure is 60 nM.

For the molecule `COCC(=O)N1CCC(c2cccc3cc(-c4nn5cc(C(=O)N6CCC[C@@H](N)C6)cc(OC)c5c4C)n(CC4CC4)c23)CC1` [Example 401, (R)-1-(4-(2-(6-(3-Aminopiperidine-1-carbonyl)-4-methoxy-3-methylpyrazolo[1,5-a]pyridin-2-yl)-1-(cyclopropylmethyl)-1H-indol-7-yl)piperidin-1-yl)-2-methoxyethan-1-one], the IC50 was determined as 20 nM. As for `COc1cc(C(=O)N2CCC[C@@H](N)C2)cn2nc(-c3cc4cccc(C5CCN(C(=O)C6CCCO6)CC5)c4n3CC3CC3)c(C)c12` (mixture of isomers) [Example 400, ((R)-3-Aminopiperidin-1-yl)(2-(1-(cyclopropylmethyl)-7-(1-(tetrahydrofuran-2-carbonyl)piperidin-4-yl)-1H-indol-2-yl)-4-methoxy-3-methylpyrazolo[1,5-a]pyridin-6-yl)methanone], the figure is 660 nM. Turning to `Cc1c(-c2cc3ccc(-c4cccc(O)c4F)cc3n2CC2CC2)oc2cc(C(=O)N3CC4CCC3[C@@H]4N)ccc12` (stereo partly drawn) [Example 181, ((7R)-7-Amino-2-azabicyclo[2.2.1]heptan-2-yl)(2-(1-(cyclopropylmethyl)-6-(2-fluoro-3-hydroxyphenyl)-1H-indol-2-yl)-3-methylbenzofuran-6-yl)methanone], the IC50 stood at 269 nM. As for `Cc1c(-c2cc3cccc(C4CCN(C(=O)C5CCCCO5)CC4)c3n2CC2CC2)nn2cc(C(=O)N3C[C@H](N)C[C@@H](F)C3)ccc12` (mixture of isomers) [Example 458], the figure is 80 nM. Take `CO[C@@H](C)C(=O)N1CCC(c2cc(F)cc3cc(-c4nn5cc(C(=O)N6CCC[C@@H](N)C6)ccc5c4C)n(CC4CC4)c23)CC1` [Example 499, (S)-1-(4-(2-(6-((R)-3-Aminopiperidine-1-carbonyl)-3-methylpyrazolo[1,5-a]pyridin-2-yl)-1-(cyclopropylmethyl)-5-fluoro-1H-indol-7-yl)piperidin-1-yl)-2-methoxypropan-1-one]: the IC50 was found to be 150 nM.
